Drawing on patent US20190308933A1, “PHENYLAMIDINES AND THE USE THEREOF AS FUNGICIDES” (priority 2016, published 2019), this text covers chromatographic logP and pest or weed control for five molecules.

Data set [1] in a line: Log P measurement by HPLC on reversed phase columns (EEC directive 79/831 Annex V.A8). It is filed as physicochemical. The conditions noted are these: reversed phase HPLC column, LC-UV. Here is the method:
[table] Measurement of Log P values was performed according to EEC directive 79/831 Annex V.A8 by HPLC (High Performance Liquid Chromatography) on reversed phase columns with the following methods: If more than one Log P value is available within the same method, all the values are given and separated by “+”. […] Lambda-max-values were determined using UV-spectra from 200 nm to 400 nm and the peak values of the chromatographic signals.

In another data set the test system is Phakopsora pachyrhizi. Put plainly: In vivo preventive test on Phakopsora (soybeans). The arrangement: species or system Phakopsora pachyrhizi (soybean rust) on soybeans. The conditions noted are these: 168 h, young soybean plants sprayed, 10 ppm of active ingredient, evaluated 7 days after inoculation, 0% = untreated control, 100% = no disease, read-out: efficacy. How it is done:
Example: In Vivo Preventive Test on Phakopsora Test (Soybeans)
To produce a suitable preparation of active compound, 1 part by weight of active compound is mixed with the stated amounts of solvent and emulsifier, and the concentrate is diluted with water to the desired concentration.
To test for preventive activity, young plants are sprayed with the preparation of active compound at the stated rate of application. After the spray coating has dried on, the plants are inoculated with an aqueous spore suspension of the causal agent of soybean rust (Phakopsora pachyrhizi) and stay for 24 h without light in an incubation cabinet at approximately 24° C. and a relative atmospheric humidity of 95%.
The plants remain in the incubation cabinet at approximately 24° C. and a relative atmospheric humidity of approximately 80% and a day/night interval of 12 h.
The test is evaluated 7 days after the inoculation. 0% means an efficacy which corresponds to that of the untreated control, while an efficacy of 100% means that no disease is observed.

The mark [2] stands for this setting: acidic range, 0.1% formic acid in water and acetonitrile as eluent (linear gradient 10% to 95% acetonitrile), read-out: LogP [a].
Setting [3] is: neutral range, 0.001 molar ammonium acetate solution in water and acetonitrile as eluent (linear gradient 10% to 95% acetonitrile), read-out: LogP [b].

Read-outs that look alike come from different tables or passages of the source.

In the case of `CCN(C)C=Nc1cc(C)c(Cc2ccc(F)cc2F)cc1Cl` [Example 21, N′-[2-chloro-4-[(2,4-difluorophenyl)methyl]-5-methylphenyl]-N-ethyl-N-methylmethanimidamide], the chromatographic logP in data set [1] (setting [2]) amounted to 1.86; in data set [1] (setting [3]), 4.6. Moreover, the pest or weed control at 10 ppm in the data set with Phakopsora pachyrhizi was in the range of 90 to 100%.
As for `CCN(C)C=Nc1cc(Cl)c(Cc2ccc(F)cc2F)cc1C` [Example 22, N′-[5-chloro-4-[(2,4-difluorophenyl)methyl]-2-methylphenyl]-N-ethyl-N-methylmethanimidamide], the chromatographic logP in data set [1] (setting [2]) worked out at 1.63. For the same molecule, the pest or weed control at 10 ppm in the data set with Phakopsora pachyrhizi lay in the range of 90 to 100%.
With `CCN(C)C=Nc1cc(Cl)c(Cc2ccccc2C)cc1C` [Example 23, N′-[5-chloro-2-methyl-4-[(2-methylphenyl)methyl]phenyl]-N-ethyl-N-methylmethanimidamide], the results for the chromatographic logP in data set [1] (setting [2]) and in data set [1] (setting [3]) were 1.66 and 5.54, respectively. Also, the pest or weed control at 10 ppm with Phakopsora pachyrhizi is 90 to 100%.
In the same order, the values of `CCN(C)C=Nc1cc(Cl)c(Cc2cccc(F)c2F)cc1C` [Example 24, N′-[5-chloro-4-[(2,3-difluorophenyl)methyl]-2-methylphenyl]-N-ethyl-N-methylmethanimidamide] are 1.63, 4.92 and 90 to 100%.
As to `CCN(C)C=Nc1cc(Cl)c(Cc2ccccc2Cl)cc1C` [Example 30, N′-[5-chloro-4-[(2-chlorophenyl)methyl]-2-methylphenyl]-N-ethyl-N-methylmethanimidamide], the chromatographic logP in data set [1] (setting [2]) turned out to be 1.81; in data set [1] (setting [3]), 5.55. The pest or weed control at 10 ppm in the data set on Phakopsora pachyrhizi lay in the range of 90 to 100%.
